Laboratory results published in patent US20120108557A1, “FLUOROQUINOLONE DERIVATIVES FOR OPHTHALMIC APPLICATIONS” (ALCON RESEARCH, LTD., priority 2008, published 2012).

Columns and labels:
in vitro = conditions: for Papp at 5 h, 100 μMole / MEAN LAG TIME: female, New Zealand Albino, rabbit; for MEAN LAG TIME: 100 μMole
Description: The procedure used is summarized below.
Female New Zealand Albino rabbits were sacrificed by first anaesthetizing with ketamine (30 mg/Kg) and xylazine (6 mg/Kg) followed by an injection of an overdose of […]* (sodium pentobarbital, 1 ml of a 26% solution) into the marginal ear vein. The intact eyes, along with the lids and conjunctival sacs were then enucleated and immediately stored in about 70 ml of fresh BSS PLUS® irrigation solution saturated with O2/CO2 (95:5).
To accomplish this, the exposed cornea of the enucleated eye was carefully placed on a corneal holder, which maintained the cornea curvature and held the eye in place. Various tissues of the eye were dissected leaving the cornea, a small ring of scleral tissue, and the palpebral conjunctiva. The conjunctival and scleral tissue served as a gasket and permitted the cornea to be suspended within the corneal ring in the center of the perfusion chamber. The chamber was jacketed to maintain the cornea and the perfusion solution at 35° C. The corneal holder and chamber were made from acrylic plastic at the University of Iowa, Iowa City, Iowa.
The mounted cornea was clamped between the two cylindrical compartments of the perfusion chamber and 7.5 mls of BSS PLUS® irrigating solution was placed in the receiving (endothelial) side of the chamber with stirring and bubbling of the O2/CO2 (95:5) mixture. Then, 7 mls of the fluoroquinolone dissolved in BSS PLUS® irrigating solution at a concentration of 100 μMole (this is approximately 4 mg/100 mL) was added to the donor (epithelial) side of the chamber also with stirring and bubbling of the O2/CO2 (95:5) mixture. The difference in volume ensured that the cornea would not buckle during the course of the experiment.
Samples (150 μL) were withdrawn from the receiving chamber every 30 minutes over a five hour period, and an equal volume of irrigating solution was immediately added to the receiving chamber to maintain a constant volume. The concentration of fluoroquinolones in the samples was determined using reverse-phase HPLC. […] Mixtures of acetonitrile and 31 mM phosphoric acid/sodium phosphate buffer at pH=3 were the mobile phase. The mobile phase (acetonitrile:phosphate buffer v/v) and UV detection wavelengths for each of the fluoroquinolones was determined beforehand. […] After each permeability experiment, the cornea was trimmed of excess scleral tissue and conjunctiva, weighed and dried overnight over phosphorus pentoxide in a vacuum desiccator. It was then reweighed in order to determine the hydration level. […] If the cornea is damaged in any way the hydration level rises. Data from corneas with hydration levels over 83% are discarded.
The rate of drug accumulation in the receiving (endothelial) chamber, and the apparent Permeability Coefficients (Papp) of the fluoroquinolones were then calculated as follows: […]

microorganisms = assay: In vitro antimicrobial activity test, whole panel of test organisms; type: cell-based; conditions: across the test organisms of TABLE 3
Description: The activity of the compounds of the present invention was evaluated using an in vitro assay. Microorganisms were prepared from growth on agar media, in broth culture, or from thawed cryopreserved cultures. Fungal cultures were filtered to remove mycelial elements.
Using Mueller Hinton II Broth, 0.9% saline or other appropriate media, a suspension of each culture was prepared and adjusted to a turbidity equivalent to that of a 0.5 McFarland Standard. (Cultures adjusted to the 0.5 McFarland Standard generally contain approximately 1.0×10^8 CFU/mL). The adjusted suspension for each culture was diluted 1:10 in the appropriate media so that the inoculum concentration approximates 1.0×10^7 CFU/mL.
The antimicrobial agent to be tested was weighed and diluted with a volume of sterile distilled water calculated to yield the necessary starting concentration. Serial 1:2 dilutions of the antimicrobial agent in sterile distilled water were prepared (approximately 10-12 test concentrations comprise a reasonable experimental range). A known amount of each antimicrobial dilution was combined with an aliquot of agar medium calculated to yield the desired final antimicrobial test concentration and dispensed onto plates.
The amount of antimicrobial agent to be weighed was determined using the following equation: […]
Antimicrobial stock solutions were prepared at concentrations 5-10 times the highest concentration to be tested (routinely 1024 μg/mL). […] The stock solution was diluted to appropriate concentration using sterile water to form a working solution. The working solution was diluted two-fold, in sterile water, until the desired concentration is obtained.
Mueller Hinton II agar was prepared as described by the manufacturer. Mueller Hinton II agar may be supplemented with 5% defibrinated sheep blood for testing streptococci. Agar was added to the serially diluted antimicrobial solution in each container. The solutions were mixed thoroughly and poured into petri dishes (about 25 mL/plate). The pH of the agar at 25° C. should be between 7.2 and 7.4. […]

| Structure (SMILES) | permeability and lag characteristics among the compounds studied (in words) (in vitro) | Papp at 5 h, 100 μMole (in vitro) [×10⁻⁶ cm/s] | MEAN LAG TIME (in vitro) [min] | antimicrobial activity compared to moxifloxacin (in words) (microorganisms) |
| --- | --- | --- | --- | --- |
| CN1CCCC2CN(c3c(F)cc4c(=O)c(C(=O)O)cn(C5CC5)c4c3F)CC21 (stereo not drawn) [Compound 1] | best permeability and lag characteristics of the compounds studied | 31.1 | 12 | somewhat better antimicrobial activity against certain microorganisms compared to moxifloxacin, and performed comparably when taken as a whole |
| Nc1c(F)c(N2CC3CCCNC3C2)c(F)c2c1c(=O)c(C(=O)O)cn2C1CC1 [Compound 3 (S,S)] | – | 13.6 | 45 | – |
| Nc1c(F)c(N2CC3CCCNC3C2)c(F)c2c1c(=O)c(C(=O)O)cn2C1CC1 (racemic) [Compound 3 (racemic)] | – | 16.6 | 38 | – |
| CN1CCCC2CN(c3cc4c(cc3F)c(=O)c(C(=O)O)cn4C3CC3)CC21 (stereo not drawn) [Compound 2] | best permeability and lag characteristics of the compounds studied | 20.5 | 27 | generally did not perform as well as moxifloxacin |
